Earlier results as cited in PMC8753592, “Long-acting capsid inhibitor protects macaques from repeat SHIV challenges” (Nature, 2021).

Target: CA hexamer
Settings: ref Yant et al, Nat.Med, 2019;[4]; read-out: Binding Affinity (KD), CA hexamer; cited from earlier work

For CC(C)(C#Cc1ccc(-c2ccc(Cl)c3c(NS(=O)(=O)C4CC4)nn(CC(F)F)c23)c([C@H](Cc2cc(F)cc(F)c2)NC(=O)Cn2nc(C(F)F)c3c2C(F)(F)[C@@H]2C[C@H]32)n1)S(C)(=O)=O [GS-CA1], the Kd is given as 0.38 nM.
